Structures can show the parent of a compound that is named as a salt.
Molecular target: α7-subtype of nicotinic receptors (Rattus norvegicus, UniProt Q05941)
Experiment: biochemical
Type: binding

α7-subtype of nicotinic receptors, sequence (Q05941 23-502): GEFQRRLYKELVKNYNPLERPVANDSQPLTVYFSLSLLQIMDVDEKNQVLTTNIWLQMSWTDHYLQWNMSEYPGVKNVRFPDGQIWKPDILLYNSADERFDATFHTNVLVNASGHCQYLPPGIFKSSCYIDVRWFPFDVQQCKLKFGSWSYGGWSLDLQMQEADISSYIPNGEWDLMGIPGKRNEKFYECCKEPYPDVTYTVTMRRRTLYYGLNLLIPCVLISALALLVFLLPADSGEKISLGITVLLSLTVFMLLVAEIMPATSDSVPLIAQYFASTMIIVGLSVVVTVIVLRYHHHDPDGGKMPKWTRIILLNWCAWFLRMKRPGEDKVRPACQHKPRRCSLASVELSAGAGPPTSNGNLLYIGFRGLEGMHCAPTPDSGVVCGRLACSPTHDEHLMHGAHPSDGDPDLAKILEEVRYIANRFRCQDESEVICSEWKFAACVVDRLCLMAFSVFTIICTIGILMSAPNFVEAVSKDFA

## c1ccc(Oc2cccc(-c3nnc(N4CCN5CCC4CC5)o3)c2)cc1 [Compound A2, 4-[5-(3-Phenoxy-phenyl)-[1,3,4]oxadiazol-2-yl]-1,4-diaza-bicyclo[3.2.2]nonane fumaric acid salt]
  IC50: < 1000 nM

## c1ccc(Oc2ccccc2-c2nnc(N3CCN4CCC3CC4)o2)cc1 [Compound A1, 4-[5-(2-Phenoxy-phenyl)-[1,3,4]oxadiazol-2-yl]-1,4-diaza-bicyclo[3.2.2]nonane fumaric acid salt]
  IC50: < 100 nM

Source: patent US20100280015A1 (priority 2007, published 2010)
